The test system of data set [1] is Beet Armyworm (Spodoptera exigua) ("BAW"), second instar larvae. As to the kind of experiment: Bioassay on beet armyworm (BAW), 128-well diet tray assay. It counts as in vivo. The note with it: for pest or weed control at 50 µg/cm2: Spodoptera exigua; for BAW rating: C = not tested, D = no activity noticed. In outline:
(§1)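 Covered trays were held at 25° C. under a 14:10 light-dark cycle for five to seven days. Percent mortality was then scored in each well, and activity across eight wells was averaged.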

Data set [2] concerns Cabbage Looper (Trichoplusia ni) ("CL"), second instar larvae. Put plainly: Bioassay on cabbage looper (CL), 128-well diet tray assay. The note with it: for CL rating: C = not tested, D = no activity noticed. It counts as in vivo. The method in brief: as §1
[3] abbreviates: read-out: BAW (Biological Results, rating).
Setting [4] is: Trichoplusia ni, read-out: CL (Biological Results, rating).
[5] abbreviates: Trichoplusia ni, read-out: CL rating.

In general, mortality refers to the percentage killed.

Like-named read-outs stand apart in the source and are kept apart here.

On to `Cc1ccc(COCC(F)(F)F)c(N2C(=O)CS/C2=N\C(=O)Nc2ccc(-c3ncn(-c4ccc(OC(F)(F)F)cc4)n3)cc2)c1` [Compound J331, (Z)-1-(3-(5-Methyl-2-((2,2,2-trifluoroethoxy)methyl)phenyl)-4-oxothiazolidin-2-ylidene)-3-(4-(1-(4-(trifluoromethoxy)phenyl)-1H-1,2,4-triazol-3-yl)phenyl)urea], for which the pest or weed control at 50 µg/cm2 in data set [1] (setting [3]) and in data set [2] (setting [4]) was 50 to 100% throughout.

With `Cc1ccc([N+](=O)[O-])c(N2C(=O)CS/C2=N\C(=O)Nc2ccc(-c3ncn(-c4ccc(OC(F)(F)F)cc4)n3)cc2F)c1` [Compound J163, (Z)-1-(2-Fluoro-4-(1-(4-(trifluoromethoxy)phenyl)-1H-1,2,4-triazol-3-yl)phenyl)-3-(3-(5-methyl-2-nitrophenyl)-4-oxothiazolidin-2-ylidene)urea], the pest or weed control at 50 µg/cm2 in data set [1] (setting [3]) and in data set [2] (setting [4]) was 50 to 100% in each case.

In the case of `COC(C)c1ccc(C)cc1N1C(=O)CS/C1=N\C(=O)Nc1ccc(-c2ncn(-c3ccc(C(F)(F)F)cc3)n2)cc1F` (centres unmarked) [Compound J62, (Z)-1-(2-Fluoro-4-(1-(4-(trifluoromethyl)phenyl)-1H-1,2,4-triazol-3-yl)phenyl)-3-(3-(2-(1-methoxyethyl)-5-methylphenyl)-4-oxothiazolidin-2-ylidene)urea], the pest or weed control at 50 µg/cm2 in data set [1] (setting [3]) and in data set [2] (setting [4]) was 50 to 100% each time.

For the molecule `COC(C)c1ccc(C)cc1N1C(=O)CS/C1=N\C(=O)Nc1ccc(-c2cn(-c3ccc(C(F)(F)F)cn3)cn2)cc1F` (centres unmarked) [Compound J461, (Z)-1-(2-Fluoro-4-(1-(5-(trifluoromethyl)pyridin-2-yl)-1H-imidazol-4-yl)phenyl)-3-(3-(2-(1-methoxyethyl)-5-methylphenyl)-4-oxothiazolidin-2-ylidene)urea], the pest or weed control at 50 µg/cm2 in data set [1] (read-out: BAW rating) and in data set [2] (setting [5]) was 50 to 100% in each case.

`Cc1ccc(OCC(F)(F)F)c(N2C(=O)CS/C2=N\C(=O)Nc2ccc(-c3ncn(-c4cccc(OC(F)(F)F)c4)n3)cc2F)c1` [Compound J121, (Z)-1-(2-Fluoro-4-(1-(3-(trifluoromethoxy)phenyl)-1H-1,2,4-triazol-3-yl)phenyl)-3-(3-(5-methyl-2-(2,2,2-trifluoroethoxy)phenyl)-4-oxothiazolidin-2-ylidene)urea]: the pest or weed control at 50 µg/cm2 fell in the range of 0 to 50% in data set [1] (setting [3]) and 50 to 100% in data set [2] (setting [4]).

Turning to `COC(C)c1ccc(C)cc1N1C(=O)CS/C1=N\C(=O)Nc1ccc(-c2ncn(-c3ccc(OC(F)(F)F)cn3)n2)cc1C#N` (centres unmarked) [Compound J267, (Z)-1-(2-Cyano-4-(1-(5-(trifluoromethoxy)pyridin-2-yl)-1H-1,2,4-triazol-3-yl)phenyl)-3-(3-(2-(1-methoxyethyl)-5-methylphenyl)-4-oxothiazolidin-2-ylidene)urea], the pest or weed control at 50 µg/cm2 in data set [1] (setting [3]) and in data set [2] (setting [4]) was 50 to 100% in each case.

Turning to `COC(C)c1ccc(C)cc1N1C(=O)CS/C1=N\C(=O)Nc1ccc(-c2ncn(-c3ccc(OC(F)(F)F)cc3)n2)cc1C(F)(F)F` (centres unmarked) [Compound J117, (Z)-1-(3-(2-(1-Methoxyethyl)-5-methylphenyl)-4-oxothiazolidin-2-ylidene)-3-(4-(1-(4-(trifluoromethoxy)phenyl)-1H-1,2,4-triazol-3-yl)-2-(trifluoromethyl)phenyl)urea], the pest or weed control at 50 µg/cm2 in data set [1] (setting [3]) and in data set [2] (setting [4]) was 50 to 100% throughout.

In the case of `Cc1ccc(COCC(F)F)c(N2C(=O)CS/C2=N\C(=O)Nc2ccc(-c3nnn(-c4ccc(OC(F)(F)F)cc4)n3)cc2)c1` [Compound J768, (Z)-1-(3-(2-((2,2-Difluoroethoxy)methyl)-5-methylphenyl)-4-oxothiazolidin-2-ylidene)-3-(4-(2-(4-(trifluoromethoxy)phenyl)-2H-tetrazol-5-yl)phenyl)urea], the pest or weed control at 50 µg/cm2 in data set [1] (read-out: BAW rating) and in data set [2] (setting [5]) was 50 to 100% each time.

As to `Cc1ccc(CC(F)(F)F)c(N2C(=O)CS/C2=N\C(=O)NCC(F)c2ccc(-c3ncn(-c4ccc(OC(F)(F)F)cc4)n3)cc2)c1` (centres unmarked) [Compound H13], the pest or weed control at 50 µg/cm2 in data set [1] (setting [3]) and in data set [2] (setting [4]) was 50 to 100% in each case.

In the case of `Cc1cc(COCC(F)(F)F)c(N2C(=O)CS/C2=N\C(=O)Nc2ccc(-c3ncn(-c4ccc(OC(F)(F)F)cc4)n3)cc2F)cc1C` [Compound J455], the BAW rating entry in data set [1] (Table ABC, species BAW) is recorded as “A (50-100)”. Moreover, the CL rating result in data set [2] (Table ABC, species CL) is given as “A (50-100)”.

As to `COc1cc(COCC(F)(F)F)c(N2C(=O)CS/C2=N\C(=O)Nc2ccc(-c3ncn(-c4ccc(S(F)(F)(F)(F)F)cc4)n3)cc2C#N)cc1OC` [Compound J588, (Z)-1-(2-Cyano-4-(1-(4-(pentafluoro-λ^6-sulfaneyl)phenyl)-1H-1,2,4-triazol-3-yl)phenyl)-3-(3-(4,5-dimethoxy-2-((2,2,2-trifluoroethoxy)methyl)phenyl)-4-oxothiazolidin-2-ylidene)urea], the pest or weed control at 50 µg/cm2 in data set [1] (read-out: BAW rating) and in data set [2] (setting [5]) was 50 to 100% throughout.

Consider `N#Cc1ccc(OCCC(F)(F)F)c(N2C(=O)CS/C2=N\C(=O)Nc2ccc(-c3ncn(-c4ccc([S+]([O-])C(F)(F)F)cc4)n3)cc2F)c1` (centres unmarked) [Compound J385, (Z)-1-(3-(5-Cyano-2-(3,3,3-trifluoropropoxy)phenyl)-4-oxothiazolidin-2-ylidene)-3-(2-fluoro-4-(1-(4-((trifluoromethyl)sulfinyl)phenyl)-1H-1,2,4-triazol-3-yl)phenyl)urea], for which the pest or weed control at 50 µg/cm2 in data set [1] (read-out: BAW rating) and in data set [2] (setting [5]) was 50 to 100% throughout.

For `Cc1ccc(COCC(F)(F)F)c(N2C(=O)CS/C2=N\C(=O)Nc2ccc(-c3ncn(-c4cccc(C(F)(F)F)c4)n3)cc2F)c1` [Compound J710], in data set [1] (Table ABC, species BAW), the BAW rating entry is recorded as “A (50-100)”. Also, the CL rating result in data set [2] (Table ABC, species CL) was “A (50-100)”.

For `Cc1ccc(COCC(F)(F)F)c(N2C(=O)CS/C2=N\C(=O)Nc2ccc(-c3ncn(-c4ccc(C(F)(F)F)nn4)n3)cc2F)c1` [Compound J394], the BAW rating entry in data set [1] (Table ABC, species BAW) was “A (50-100)”. Further, in data set [2] (Table ABC, species CL), the CL rating result is on record as “A (50-100)”.

In the case of `COC(c1ccc(C)cc1N1C(=O)CS/C1=N\C(=O)Nc1ccc(-c2nnc(-c3ccc(OC(F)(F)F)cc3)o2)cc1F)C(F)(F)F` (centres unmarked) [Compound J433, (Z)-1-(2-Fluoro-4-(5-(4-(trifluoromethoxy)phenyl)-1,3,4-oxadiazol-2-yl)phenyl)-3-(3-(5-methyl-2-(2,2,2-trifluoro-1-methoxyethyl)phenyl)-4-oxothiazolidin-2-ylidene)urea], the pest or weed control at 50 µg/cm2 in data set [1] (read-out: BAW rating) and in data set [2] (setting [5]) was 50 to 100% in each case.

With `CCCc1ccc(N(C)C)cc1N1C(=O)CS/C1=N\C(=O)Nc1ccc(-c2ncn(-c3ccc([S+]([O-])C(F)(F)F)cc3)n2)cc1F` (centres unmarked) [Compound J383, (Z)-1-(3-(5-(Dimethylamino)-2-propylphenyl)-4-oxothiazolidin-2-ylidene)-3-(2-fluoro-4-(1-(4-((trifluoromethyl)sulfinyl)phenyl)-1H-1,2,4-triazol-3-yl)phenyl)urea], the pest or weed control at 50 µg/cm2 in data set [1] (read-out: BAW rating) and in data set [2] (setting [5]) was 50 to 100% throughout.

On to `Cc1ccc(C(C)C)c(N2C(=O)CS/C2=N\C(=O)Nc2ccc(-c3ncn(-c4ccc(C(F)(F)F)cn4)n3)cc2F)c1` [Compound J279, (Z)-1-(2-Fluoro-4-(1-(5-(trifluoromethyl)pyridin-2-yl)-1H-1,2,4-triazol-3-yl)phenyl)-3-(3-(2-isopropyl-5-methylphenyl)-4-oxothiazolidin-2-ylidene)urea], for which the pest or weed control at 50 µg/cm2 in data set [1] (setting [3]) and in data set [2] (setting [4]) was 50 to 100% throughout.

For the molecule `COC(c1ccc(C)cc1N1C(=O)CS/C1=N\C(=O)Nc1ccc(-c2cn(-c3ccc(S(F)(F)(F)(F)F)cc3)cn2)cc1C)C(F)(F)F` (centres unmarked) [Compound J617, (Z)-1-(3-(5-Methyl-2-(2,2,2-trifluoro-1-methoxyethyl)phenyl)-4-oxothiazolidin-2-ylidene)-3-(2-methyl-4-(1-(4-(pentafluoro-λ^6-sulfaneyl)phenyl)-1H-imidazol-4-yl)phenyl)urea], the pest or weed control at 50 µg/cm2 in data set [1] (read-out: BAW rating) and in data set [2] (setting [5]) was 50 to 100% throughout.

`COC(c1ccc(C)cc1N1C(=O)CS/C1=N\C(=O)Nc1ccc(-n2cnc(-c3ccc(OC(F)(F)F)cc3)c2)cc1Cl)C(F)(F)F` (centres unmarked) [Compound J791, (Z)-1-(2-Chloro-4-(4-(4-(trifluoromethoxy)phenyl)-1H-imidazol-1-yl)phenyl)-3-(3-(5-methyl-2-(2,2,2-trifluoro-1-methoxyethyl)phenyl)-4-oxothiazolidin-2-ylidene)urea]: the “BAW rating (% control or mortality class)” value in data set [1] (Table ABC, species BAW, 128-well diet tray assay, second instar larvae) was “A (50-100)”. The mortality at 50 µg/cm2 in data set [2] (Trichoplusia ni, Table ABC, species CL, 128-well diet tray assay, second instar larvae, read-out: CL rating (% control or mortality class)) was 50 to 100%.

Consider `CC(C)c1cc(-c2ncn(-c3ccc(OC(F)(F)F)cc3)n2)ccc1NC(=O)/N=C1\SCC(=O)N1c1cc(N(C)C)ccc1C(C)C` [Compound J101, (Z)-1-(3-(5-(Dimethylamino)-2-isopropylphenyl)-4-oxothiazolidin-2-ylidene)-3-(2-isopropyl-4-(1-(4-(trifluoromethoxy)phenyl)-1H-1,2,4-triazol-3-yl)phenyl)urea], for which the pest or weed control at 50 µg/cm2 in data set [1] (setting [3]) and in data set [2] (setting [4]) was 50 to 100% each time.

With `CCCN(CCC)c1ccc(C(C)C)c(N2C(=O)CS/C2=N\C(=O)Nc2ccc(-c3ncn(-c4ccc(OC(F)(F)F)cc4)n3)cc2CC)c1` [Compound J161, (Z)-1-(3-(5-(Dipropylamino)-2-isopropylphenyl)-4-oxothiazolidin-2-ylidene)-3-(2-ethyl-4-(1-(4-(trifluoromethoxy)phenyl)-1H-1,2,4-triazol-3-yl)phenyl)urea], the pest or weed control at 50 µg/cm2 was in the range of 50 to 100% in data set [1] (setting [3]) and 0 to 50% in data set [2] (setting [4]).

As for `CCOC(C)c1ccc(C)cc1N1C(=O)CS/C1=N\C(=O)Nc1ccc(-c2ncn(-c3ccc(C(F)(F)F)cn3)n2)cc1F` (centres unmarked) [Compound J378], the BAW rating entry in data set [1] (Table ABC, species BAW) was “A (50-100)”. Moreover, the CL rating result in data set [2] (Table ABC, species CL) is “A (50-100)”.

For the origin of these results see patent US20230077362A1 (CORTEVA AGRISCIENCE LLC, priority 2019, published 2023).
